Measurements: patent US20110212997A1, “PIPERIDINE-4-ACETAMIDE DERIVATIVES AND THEIR USE AS MONOAMINE NEUROTRANSMITTER RE-UPTAKE INHIBITORS” (NEUROSEARCH A/S, priority 2008, published 2011)
Where a name gives a salt, the structure may show the parent alone. Read-outs that look alike come from different tables or passages of the source. Each block holds one compound with its values, some of them ahead of it.

Key:
[1] = biological target: T1, serotonine (5-HT) reuptake in synaptosomes (Rattus norvegicus, UniProt P31652); assay: Inhibition of 5-HT reuptake in synaptosomes; assay type: biochemical; settings: 3H-5-HT, read-out: 5-HT-uptake IC50
T1 construct: serotonine (5-HT) in synaptosomes as described in WO 97/16451; from tissue
Experimental: (§1) Compounds were tested for their ability to inhibit the reuptake of the monoamine neurotransmitters dopamine (DA) noradrenaline (NA) and serotonine (5-HT) in synaptosomes as described in WO 97/16451 (NeuroSearch NS).
(§2) The test values are given as IC50 (the concentration (μM) of the test substance which inhibits the specific binding of ^3H-DA, ^3H-NA, or ^3H-5-HT by 50%).

[2] = biological target: T2, dopamine (DA) reuptake in synaptosomes (Rattus norvegicus, UniProt P23977); assay: Inhibition of DA reuptake in synaptosomes; assay type: biochemical
T2 construct: in synaptosomes as described in WO 97/16451; from tissue
Experimental: as §1, §2

[3] = biological target: T3, noradrenaline (NA) reuptake in synaptosomes (Rattus norvegicus, UniProt Q63380); assay: Inhibition of NA reuptake in synaptosomes; assay type: biochemical
T3 construct: in synaptosomes as described in WO 97/16451; from tissue
Experimental: as §1, §2

[4] = synaptosomes, 3H-DA, read-out: DA-uptake IC50
[5] = synaptosomes, 3H-NA, read-out: NA-uptake IC50

T2 sequence (P23977 whole entry): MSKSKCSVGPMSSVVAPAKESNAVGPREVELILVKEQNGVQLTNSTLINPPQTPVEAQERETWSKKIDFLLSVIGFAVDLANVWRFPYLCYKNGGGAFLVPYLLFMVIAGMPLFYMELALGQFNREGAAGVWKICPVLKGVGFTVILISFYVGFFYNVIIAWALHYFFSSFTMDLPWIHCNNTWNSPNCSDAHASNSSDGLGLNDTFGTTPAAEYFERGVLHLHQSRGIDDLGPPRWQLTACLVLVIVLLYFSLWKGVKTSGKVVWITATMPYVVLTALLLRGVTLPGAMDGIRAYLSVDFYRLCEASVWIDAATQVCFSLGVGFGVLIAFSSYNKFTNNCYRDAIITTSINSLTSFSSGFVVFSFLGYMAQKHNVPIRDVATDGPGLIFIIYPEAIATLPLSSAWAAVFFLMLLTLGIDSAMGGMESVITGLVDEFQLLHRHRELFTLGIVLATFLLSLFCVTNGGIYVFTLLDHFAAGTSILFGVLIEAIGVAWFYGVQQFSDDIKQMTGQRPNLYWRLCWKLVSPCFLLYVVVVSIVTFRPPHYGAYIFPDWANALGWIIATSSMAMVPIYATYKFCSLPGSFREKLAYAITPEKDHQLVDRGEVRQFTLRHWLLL
T3 sequence (Q63380 1-617): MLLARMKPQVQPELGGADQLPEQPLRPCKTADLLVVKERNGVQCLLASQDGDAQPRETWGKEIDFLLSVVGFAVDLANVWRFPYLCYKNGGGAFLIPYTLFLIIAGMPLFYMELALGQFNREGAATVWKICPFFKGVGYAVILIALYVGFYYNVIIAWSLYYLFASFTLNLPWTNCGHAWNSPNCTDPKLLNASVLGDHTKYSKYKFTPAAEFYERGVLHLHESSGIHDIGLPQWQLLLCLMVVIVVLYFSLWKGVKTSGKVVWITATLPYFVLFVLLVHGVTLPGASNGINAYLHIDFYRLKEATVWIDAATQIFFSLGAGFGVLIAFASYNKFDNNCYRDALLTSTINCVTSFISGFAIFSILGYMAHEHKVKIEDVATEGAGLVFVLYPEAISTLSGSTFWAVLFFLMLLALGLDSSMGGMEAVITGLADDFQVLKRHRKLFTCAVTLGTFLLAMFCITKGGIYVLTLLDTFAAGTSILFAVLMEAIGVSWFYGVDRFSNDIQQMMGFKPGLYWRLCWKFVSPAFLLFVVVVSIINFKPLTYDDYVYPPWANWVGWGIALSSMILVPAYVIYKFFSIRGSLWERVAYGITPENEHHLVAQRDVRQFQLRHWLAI
T1 sequence (P31652 whole entry): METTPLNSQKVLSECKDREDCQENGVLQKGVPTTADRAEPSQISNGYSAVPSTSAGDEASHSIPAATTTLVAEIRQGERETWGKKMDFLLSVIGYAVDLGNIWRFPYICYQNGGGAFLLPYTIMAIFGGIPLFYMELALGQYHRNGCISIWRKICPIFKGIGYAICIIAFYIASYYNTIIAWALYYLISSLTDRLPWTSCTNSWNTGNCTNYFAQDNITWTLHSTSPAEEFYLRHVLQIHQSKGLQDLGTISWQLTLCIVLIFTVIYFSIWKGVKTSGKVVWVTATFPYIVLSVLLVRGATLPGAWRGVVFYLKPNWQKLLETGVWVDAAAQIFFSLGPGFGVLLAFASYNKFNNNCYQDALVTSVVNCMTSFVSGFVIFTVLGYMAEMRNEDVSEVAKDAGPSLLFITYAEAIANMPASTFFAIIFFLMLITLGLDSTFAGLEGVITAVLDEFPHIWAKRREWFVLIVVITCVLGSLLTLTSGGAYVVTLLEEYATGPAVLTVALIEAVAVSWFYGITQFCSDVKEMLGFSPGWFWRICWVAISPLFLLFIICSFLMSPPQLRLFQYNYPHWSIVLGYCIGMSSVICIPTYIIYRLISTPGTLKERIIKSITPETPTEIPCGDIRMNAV

SMILES: CCN(C(=O)CC1CCNCC1)c1cc(Cl)ccc1Cl (as salt: fumaric acid salt) [Compound C7, N-(2,5-Dichloro-phenyl)-N-ethyl-2-piperidin-4-yl-acetamide]
melting point: 190 to 192 °C

SMILES: CCN(C(=O)CC1CCNCC1)c1c(Cl)cccc1Cl (as salt: fumaric acid salt) [Compound C8, N-(2,6-Dichloro-phenyl)-N-ethyl-2-piperidin-4-yl-acetamide]
melting point: 167 to 169 °C

SMILES: CCN(C(=O)CC1CCNCC1)c1cc(Cl)cc(Cl)c1 (as salt: fumaric acid salt) [Compound C9, N-(3,5-Dichloro-phenyl)-N-ethyl-2-piperidin-4-yl-acetamide]
melting point: 151 to 153 °C

SMILES: CN(C(=O)CC1CCNCC1)c1ccc(Cl)c(Cl)c1 [Compound B1, N-(3,4-Dichloro-phenyl)-N-methyl-2-piperidin-4-yl-acetamide]
IC50 [1]: 280 nM | IC50 [2, 4]: 230 nM | IC50 [3, 5]: 120 nM

SMILES: CCN(C(=O)CC1CCNCC1)c1ccc(Cl)c(Cl)c1 [Compound C1, N-(3,4-Dichloro-phenyl)-N-ethyl-2-piperidin-4-yl-acetamide]
IC50 [1]: 1500 nM | IC50 [2, 4]: 15 nM | IC50 [3, 5]: 6.6 nM

SMILES: O=C(CC1CCNCC1)Nc1ccc(Cl)c(Cl)c1 [Compound C2, N-(3,4-Dichloro-phenyl)-2-piperidin-4-yl-acetamide]
IC50 [1]: 23 nM | IC50 [2, 4]: > 1000 nM | IC50 [3, 5]: > 1000 nM

SMILES: CCN(C(=O)CC1CCNCC1)c1ccc(Cl)cc1 [Compound C3, N-(4-Chloro-phenyl)-N-ethyl-2-piperidin-4-yl-acetamide]
IC50 [1]: > 1000 nM | IC50 [2, 4]: 450 nM | IC50 [3, 5]: 770 nM

SMILES: CCN(C(=O)CC1CCNCC1)c1cccc(Cl)c1 [Compound C4, N-(3-Chloro-phenyl)-N-ethyl-2-piperidin-4-yl-acetamide]
IC50 [1]: > 1000 nM | IC50 [2, 4]: 600 nM | IC50 [3, 5]: 460 nM

SMILES: CCN(C(=O)CC1CCNCC1)c1cccc2ccccc12 [Compound C5, N-Ethyl-N-naphthalen-1-yl-2-piperidin-4-yl-acetamide]
IC50 [1]: > 1000 nM | IC50 [2, 4]: > 1000 nM | IC50 [3, 5]: 600 nM

SMILES: CCN(C(=O)CC1CCNCC1)c1cccc(Cl)c1Cl [Compound C6, N-(2,3-Dichloro-phenyl)-N-ethyl-2-piperidin-4-yl-acetamide]
IC50 [1]: > 1000 nM | IC50 [2, 4]: > 1000 nM | IC50 [3, 5]: 910 nM

SMILES: CCN(C(=O)CC1CCNCC1)c1cc(Cl)ccc1Cl [Compound C7, N-(2,5-Dichloro-phenyl)-N-ethyl-2-piperidin-4-yl-acetamide]
IC50 [1]: > 1000 nM | IC50 [2, 4]: 2600 nM | IC50 [3, 5]: 1500 nM

SMILES: CCN(C(=O)CC1CCNCC1)c1c(Cl)cccc1Cl [Compound C8, N-(2,6-Dichloro-phenyl)-N-ethyl-2-piperidin-4-yl-acetamide]
IC50 [1]: > 1000 nM | IC50 [2, 4]: > 1000 nM | IC50 [3, 5]: 2700 nM

SMILES: CCN(C(=O)CC1CCNCC1)c1cc(Cl)cc(Cl)c1 [Compound C9, N-(3,5-Dichloro-phenyl)-N-ethyl-2-piperidin-4-yl-acetamide]
IC50 [1]: > 1000 nM | IC50 [2, 4]: 1900 nM | IC50 [3, 5]: 670 nM

SMILES: CCN(C(=O)CC1CCNCC1)c1ccc(Cl)c(Cl)c1Cl [Compound C10, N-Ethyl-2-piperidin-4-yl-N-(2,3,4-trichloro-phenyl)-acetamide]
IC50 [1]: 1400 nM | IC50 [2, 4]: 630 nM | IC50 [3, 5]: 120 nM

SMILES: CCN(C(=O)CC1CCNCC1)c1ccc(Br)c(Br)c1 [Compound C11, N-(3,4-Dibromo-phenyl)-N-ethyl-2-piperidin-4-yl-acetamide]
IC50 [1]: 610 nM | IC50 [2, 4]: 2.2 nM | IC50 [3, 5]: 1.2 nM

SMILES: CCCN(C(=O)CC1CCNCC1)c1ccc(Cl)c(Cl)c1 [Compound C12, N-(3,4-Dichloro-phenyl)-2-piperidin-4-yl-N-propyl-acetamide]
IC50 [1]: 880 nM | IC50 [2, 4]: 12 nM | IC50 [3, 5]: 5.2 nM

SMILES: CCN(C(=O)CC1CCNCC1)c1ccc(Cl)c(Br)c1 [Compound C13, N-(3-Bromo-4-chloro-phenyl)-N-ethyl-2-piperidin-4-yl-acetamide]
IC50 [1]: 1200 nM | IC50 [2, 4]: 8 nM | IC50 [3, 5]: 1.3 nM

SMILES: CCCN1CCC(CC(=O)N(CC)c2ccc(Cl)c(Cl)c2)CC1 [Compound D9, N-(3,4-Dichloro-phenyl)-N-ethyl-2-(1-propykpiperidin-4-yl)-acetamide]
IC50 [1]: 780 nM | IC50 [2]: 12 nM | IC50 [3]: 3.8 nM

More lines, now with the values ahead:

IC50 [1]: 1400 nM | IC50 [2, 4]: 20 nM | IC50 [3, 5]: 4.4 nM
SMILES: CCN(C(=O)CC1CCN(C)CC1)c1ccc(Cl)c(Cl)c1 [Compound D1, N-(3,4-Dichloro-phenyl)-N-ethyl-2-(1-methyl-piperidin-4-yl)-acetamide]

IC50 [1]: > 1000 nM | IC50 [2, 4]: 970 nM | IC50 [3, 5]: 390 nM
SMILES: CCN(C(=O)CC1CCN(C)CC1)c1ccc(Cl)cc1 [Compound D2, N-(4-Chloro-phenyl)-N-ethyl-2-(1-methyl-piperidin-4-yl)-acetamide]

IC50 [1]: > 1000 nM | IC50 [2, 4]: > 1000 nM | IC50 [3, 5]: 1700 nM
SMILES: CCN(C(=O)CC1CCN(C)CC1)c1cccc2ccccc12 [Compound D3, N-Ethyl-2-(1-methyl-piperidin-4-yl)-N-naphthalen-1-yl-acetamide]

IC50 [1]: 2100 nM | IC50 [2, 4]: 8.6 nM | IC50 [3, 5]: 2.6 nM
SMILES: CCN(C(=O)CC1CCNCC1)c1ccc(Br)c(Cl)c1 [Compound D4, N-(4-Bromo-3-chloro-phenyl)-N-ethyl-2-piperidin-4-yl-acetamide]

IC50 [1]: > 1000 nM | IC50 [2, 4]: > 1000 nM | IC50 [3, 5]: > 1000 nM
SMILES: CCN(C(=O)CC1CCNCC1)c1ccc(Cl)cc1Cl [Compound D5, N-(2,4-Dichloro-phenyl)-N-ethyl-2-piperidin-4-yl-acetamide]

IC50 [1]: > 1000 nM | IC50 [2, 4]: > 1000 nM | IC50 [3, 5]: > 1000 nM
SMILES: CN1CCC(CC(=O)Nc2ccc(Cl)c(Cl)c2)CC1 [Compound D6, N-(3,4-Dichloro-phenyl)-2-(1-methyl-piperidin-4-yl)-acetamide]

IC50 [1]: > 1000 nM | IC50 [2, 4]: 970 nM | IC50 [3, 5]: 350 nM
SMILES: CCN(C(=O)CC1CCN(C)CC1)c1cccc(Cl)c1 [Compound D7, N-(3-Chloro-phenyl)-N-ethyl-2-(1-methyl-piperidin-4-yl)-acetamide]

IC50 [1]: > 1000 nM | IC50 [2, 4]: > 1000 nM | IC50 [3, 5]: > 1000 nM
SMILES: CCN(C(=O)CC1CCN(C)CC1)c1cccc(Cl)c1Cl [Compound D8, N-(2,3-Dichloro-phenyl)-N-ethyl-2-(1-methyl-piperidin-4-yl)-acetamide]

IC50 [1]: 1200 nM | IC50 [2, 4]: 31 nM | IC50 [3, 5]: 7.7 nM
SMILES: CCN(C(=O)CC1CCN(C(C)C)CC1)c1ccc(Cl)c(Cl)c1 [Compound D10, N-(3,4-Dichloro-phenyl)-N-ethyl-2-(1-isopropyl-piperidin-4-yl)-acetamide]

IC50 [1]: 870 nM | IC50 [2, 4]: 13 nM | IC50 [3, 5]: 3.2 nM
SMILES: CCN1CCC(CC(=O)N(CC)c2ccc(Cl)c(Cl)c2)CC1 [Compound D11, N-(3,4-Dichloro-phenyl)-N-ethyl-2-(1-ethyl-piperidin-4-yl)-acetamide]

IC50 [1]: > 1000 nM | IC50 [2, 4]: 160 nM | IC50 [3, 5]: 69 nM
SMILES: CN1CCC(CC(=O)N(C)c2ccc(Cl)c(Cl)c2)CC1 [Compound D12, N-(3,4-Dichloro-phenyl)-N-methyl-2-(1-methyl-piperidin-4-yl)-acetamide]

IC50 [1]: 1500 nM | IC50 [2, 4]: 16 nM | IC50 [3, 5]: 2.7 nM
SMILES: CCN(C(=O)CC1CCN(C)CC1)c1ccc(Br)c(Cl)c1 [Compound D13, N-(4-Bromo-3-chloro-phenyl)-N-ethyl-2-(1-methyl-piperidin-4-yl)-acetamide]

IC50 [1]: > 1000 nM | IC50 [2, 4]: 2500 nM | IC50 [3, 5]: 960 nM
SMILES: CCN(C(=O)CC1CCN(C)CC1)c1ccc(Cl)cc1Cl [Compound D14, N-(2,4-Dichloro-phenyl)-N-ethyl-2-(1-methyl-piperidin-4-yl)-acetamide]

IC50 [1]: > 1000 nM | IC50 [2, 4]: 1700 nM | IC50 [3, 5]: 860 nM
SMILES: CCN(C(=O)CC1CCN(C)CC1)c1cc(Cl)ccc1Cl [Compound D15, N-(2,5-Dichloro-phenyl)-N-ethyl-2-(1-methyl-piperidin-4-yl)-acetamide]

IC50 [1]: > 1000 nM | IC50 [2, 4]: > 1000 nM | IC50 [3, 5]: > 1000 nM
SMILES: CCN(C(=O)CC1CCN(C)CC1)c1c(Cl)cccc1Cl [Compound D16, N-(2,6-Dichloro-phenyl)-N-ethyl-2-(1-methyl-piperidin-4-yl)-acetamide]

IC50 [1]: > 1000 nM | IC50 [2, 4]: > 1000 nM | IC50 [3, 5]: 1800 nM
SMILES: CCN(C(=O)CC1CCN(C)CC1)c1cc(Cl)cc(Cl)c1 [Compound D17, N-(3,5-Dichloro-phenyl)-N-ethyl-2-(1-methyl-piperidin-4-yl)-acetamide]

IC50 [1]: 2100 nM | IC50 [3, 5]: 81 nM
SMILES: CCN(C(=O)CC1CCN(C)CC1)c1ccc(Cl)c(Cl)c1Cl [Compound D18, N-Ethyl-2-(1-methyl-piperidin-4-yl)-N-(2,3,4-trichloro-phenyl)-acetamide]

IC50 [1]: 680 nM | IC50 [2, 4]: 3.6 nM | IC50 [3, 5]: 1.1 nM
SMILES: CCN(C(=O)CC1CCN(C)CC1)c1ccc(Br)c(Br)c1 [Compound D19, N-(3,4-Dibromo-phenyl)-N-ethyl-2-(1-methyl-piperidin-4-yl)-acetamide]

IC50 [1]: 700 nM | IC50 [2, 4]: 12 nM | IC50 [3, 5]: 3.4 nM
SMILES: CCCN(C(=O)CC1CCN(C)CC1)c1ccc(Cl)c(Cl)c1 [Compound D20, N-(3,4-Dichloro-phenyl)-2-(1-methyl-piperidin-4-yl)-N-propyl-acetamide]

IC50 [1]: 1200 nM | IC50 [2, 4]: 12 nM | IC50 [3, 5]: 2.3 nM
SMILES: CCN(C(=O)CC1CCN(C)CC1)c1ccc(Cl)c(Br)c1 [Compound D21, N-(3-Bromo-4-chloro-phenyl)-N-ethyl-2-(1-methyl-piperidin-4-yl)-acetamide]
